In patent US20040018235A1, “Controlled release pharmaceutical composition” (KOWA CO., LTD, priority 2002, published 2004):

Test: Absorption sites of pitavastatin in rat (in situ loop test)
Format: in vivo

SMILES: O=C(O)C[C@H](O)C[C@H](O)/C=C/c1c(C2CC2)nc2ccccc2c1-c1ccc(F)cc1 [pitavastatin, (+)-(3R,5S,6E)-7-[2-cyclopropyl-4-(4-fluorophenyl)-3-quinolyl]-3,5-dihydroxy-6-heptenoic acid]
- Absorption percentage (duodenum, 0.5 h): 65.9 ± 2.1%
- Absorption percentage (duodenum, 1 h): 60.3 ± 10.2%
- Absorption percentage (large intestine, 0.5 h): 34.4 ± 3.7%
- Absorption percentage (large intestine, 1 h): 51.6 ± 6.7%
- Percentage of absorption in the small intestine relative to that in the duodenum (see Table 1): about one-third
- Absorption percentage (small intestine, 0.5 h): 23.1 ± 3.8%
- Absorption percentage (small intestine, 1 h): 21.3 ± 3.0%
- Absorption percentage (stomach, 0.5 h): 8.6 ± 1.1%
- Absorption percentage (stomach, 1 h): 14.4 ± 1.6%
